Values quoted from earlier work, collected in US20250034331A1, “POLYESTER URETHANE BIORESORBABLE ELASTOMERS WITH MICROSTRUCTURES FOR TUNABLE DRUG RELEASE AND TUNABLE DEGRADATION” (SOLESIS, INC., priority 2023, published 2025).

What was measured:
[1] = humans

Row | SMILES | time of excretion [1] | solubility in PBS
1 | NCCCCCCN [HDA, hexamethylene diamine] | ≤ 10 h | 
2 | C[C@@H]1C[C@H]2[C@@H]3CCC4=CC(=O)C=C[C@]4(C)[C@@]3(F)[C@@H](O)C[C@]2(C)[C@@]1(O)C(=O)CO [dexamethasone] |  | about 75 μg/mL
